Our source for the TGI and GI50 values is PubChem BioAssay (NCI).

Some test systems named below: A549 NSCLC; COLO 205 colon; HCT-116 colon; HCT-15 colon; K-562 leukemia; MALME-3M melanoma; MOLT-4 leukemia; NCI-H226 lung; OVCAR-3 ovarian; SF-539 CNS; SK-MEL-2 melanoma; SK-MEL-5 melanoma; SW-620 colon; EKVX NSCLC; NCI-H522 lung.
Common to all, as to experiment: inhibition of tumour cell growth, NCI panel, 48 h

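Tested at 5 concentrations; 48 h exposure; 96-well plates; endpoints linearly interpolated, else capped at highest concentration. Here, GI50 denotes the concentration required for 50% inhibition of growth. TGI is the concentration that stops growth completely.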 Where only a bound is given, the exact number is not on record here.

Consider `CCOC(=O)Nc1c(C#N)[n+]([O-])c2cc(Cl)c(Cl)cc2[n+]1[O-]`, for which the TGI turned out to be 69.8 µM in the assay with A549 NSCLC; 30.3 µM in the assay with COLO 205 colon; 59.3 µM in the assay with HCT-116 colon; 25.8 µM with HCT-15 colon; 39.9 µM in the assay on K-562 leukemia; 37.6 µM in the assay with MALME-3M melanoma. In addition, the TGI was found to be 28.7 µM with MOLT-4 leukemia; 42.9 µM with NCI-H226 lung; 42.6 µM with OVCAR-3 ovarian; 30.9 µM in the assay on SF-539 CNS; 48 µM in the assay on SK-MEL-2 melanoma; 24.9 µM in the assay with SK-MEL-5 melanoma. The compound further had a TGI in the assay with SW-620 colon of 56.5 µM.

Regarding `NCCCn1c2ccccc2c2c3c(c4c(c21)CCC(O)CC4)C(=O)NC3=O` (stereo not drawn), the TGI in the assay with A549 NSCLC was found to be 21.6 µM; in the assay with EKVX NSCLC, 23.7 µM; in the assay with HCT-116 colon it was 28.4 µM; in the assay on HCT-15 colon, 23 µM; with K-562 leukemia it was 8.5 µM; in the assay with MALME-3M melanoma, 15.8 µM. Moreover, the TGI with MOLT-4 leukemia turned out to be 11.2 µM; with NCI-H226 lung it was 13.6 µM; with NCI-H522 lung, 13.2 µM; in the assay with OVCAR-3 ovarian it was 12.2 µM; in the assay with SF-539 CNS it was 21.6 µM; in the assay with SK-MEL-2 melanoma, 24.1 µM. Besides, the TGI with SK-MEL-5 melanoma was 16.5 µM; in the assay on SW-620 colon it was 5.19 µM.

For the compound `O=C(CC/C=C(/CS(=O)(=O)c1ccccc1)S(=O)(=O)c1ccccc1)c1ccccc1`, the TGI with A549 NSCLC, in the assay on EKVX NSCLC, in the assay with HCT-116 colon, with HCT-15 colon, in the assay on K-562 leukemia and in the assay with MOLT-4 leukemia was > 100 µM throughout. For the same compound, the TGI with NCI-H226 lung was > 100 µM; in the assay with NCI-H522 lung, 49.8 µM; in the assay with OVCAR-3 ovarian, > 100 µM; in the assay on SF-539 CNS, > 100 µM; in the assay on SK-MEL-2 melanoma, > 100 µM; with SK-MEL-5 melanoma, > 100 µM. Further, the TGI with SW-620 colon is > 100 µM.

Turning to `CC(=O)[C@@H]1CCC=C2CC[C@]3(C)[C@@H](CC[C@@H]4[C@@]5(C)CCCNC(C)(C)[C@@H]5CC[C@]43C)[C@H]21`, the GI50 in the assay with A549 NSCLC was 2020 nM; in the assay with COLO 205 colon, 1380 nM; with HCT-15 colon, 1440 nM; in the assay on NCI-H522 lung it was 1930 nM; in the assay with SK-MEL-2 melanoma, 2010 nM. Further, the TGI in the assay on A549 NSCLC amounted to 3.73 µM; with COLO 205 colon, 2.79 µM; in the assay on HCT-15 colon, 2.84 µM; in the assay on NCI-H522 lung, 3.5 µM; in the assay on SK-MEL-2 melanoma, 3.69 µM.

Turning to `COc1cccc(-c2ccc3c4c2O[C@H]2c5[nH]c6ccccc6c5C[C@@]5(O)[C@@H](C3)N(CC3CC3)CC[C@]425)c1`, the TGI with A549 NSCLC was 3.36 µM; in the assay on COLO 205 colon, 4.15 µM; in the assay on EKVX NSCLC it was 9.5 µM; in the assay on HCT-116 colon, 2.99 µM; in the assay on HCT-15 colon, 3.7 µM; with K-562 leukemia, 4.98 µM. In addition, the TGI in the assay on MALME-3M melanoma was determined as 2.88 µM; in the assay on MOLT-4 leukemia, 9.34 µM; in the assay on NCI-H226 lung it was 30.2 µM; in the assay with OVCAR-3 ovarian it was 3.3 µM; in the assay on SF-539 CNS, 3.51 µM; in the assay on SK-MEL-2 melanoma, 3.69 µM. Further, the TGI in the assay on SK-MEL-5 melanoma is 3.85 µM; with SW-620 colon, 4.77 µM.

In the case of `COc1ccc(S(=O)(=O)O)cc1-n1nc(C(=O)Nc2ccccc2)n[n+]1-c1cc(S(=O)(=O)[O-])ccc1OC`, the TGI in the assay on A549 NSCLC, in the assay on COLO 205 colon, in the assay on EKVX NSCLC, in the assay with HCT-116 colon, in the assay with HCT-15 colon and with K-562 leukemia was > 100 µM in each case. Further, the TGI in the assay with MALME-3M melanoma, in the assay with MOLT-4 leukemia, in the assay on NCI-H226 lung, with NCI-H522 lung, in the assay on OVCAR-3 ovarian and with SF-539 CNS was > 100 µM throughout. Also, the TGI in the assay on SK-MEL-5 melanoma and in the assay with SW-620 colon was > 100 µM throughout.

Consider `CC(=O)NCCC1CN(C(=O)/C=C\C#C[Si](C)(C)C)c2ccccc21` (stereo not drawn), for which the TGI in the assay on A549 NSCLC is > 100 µM; in the assay with COLO 205 colon it was > 100 µM; in the assay on EKVX NSCLC it was 37.5 µM; in the assay on HCT-15 colon, 48.9 µM; in the assay with K-562 leukemia it was > 100 µM; with MALME-3M melanoma, 49.4 µM. The TGI in the assay with MOLT-4 leukemia was > 100 µM; in the assay on NCI-H226 lung it was 46 µM; with NCI-H522 lung it was 24.3 µM; in the assay with OVCAR-3 ovarian, 84.1 µM; in the assay with SF-539 CNS, 73.8 µM; in the assay on SK-MEL-2 melanoma, 37.8 µM. The TGI in the assay with SK-MEL-5 melanoma and in the assay with SW-620 colon was > 100 µM in each case.

With `CC1(C)[C@@H](Cn2cnc3c(N)ncnc32)CC[C@@]1(C)CO`, the TGI in the assay on A549 NSCLC, in the assay on COLO 205 colon, in the assay on EKVX NSCLC, with HCT-116 colon, in the assay with HCT-15 colon and in the assay with K-562 leukemia was > 100 µM each time. The TGI in the assay on MALME-3M melanoma, in the assay with MOLT-4 leukemia, in the assay on NCI-H226 lung, with NCI-H522 lung, in the assay with OVCAR-3 ovarian and with SK-MEL-5 melanoma was > 100 µM in each case. In addition, the TGI in the assay with SW-620 colon is > 100 µM.

For `ClC(Cl)(Cl)C1=N[C@H]2[C@H](Br)[C@@H]3O[C@@H](c4ccccc4)[C@H](c4ccccc4)O[C@@H]3[C@H]2O1`, the TGI worked out at 49.2 µM in the assay on A549 NSCLC; 30 µM in the assay with COLO 205 colon; 50.3 µM with EKVX NSCLC; 39 µM with HCT-116 colon; 67.3 µM in the assay on HCT-15 colon; 54 µM with K-562 leukemia. For the same compound, the TGI in the assay with MALME-3M melanoma stood at 36.2 µM; in the assay on MOLT-4 leukemia, 45.7 µM; in the assay on NCI-H226 lung it was 35.5 µM; with NCI-H522 lung, 26.7 µM; with OVCAR-3 ovarian, 31.9 µM; in the assay on SK-MEL-2 melanoma, 31.3 µM. Further, the TGI worked out at 31.2 µM with SK-MEL-5 melanoma and 44.8 µM with SW-620 colon.

For the compound `Cc1sc2nc(-c3cc([N+](=O)[O-])c(Cl)cc3Cl)c(/C=N/N=C(N)N)n2c1C`, the TGI in the assay on A549 NSCLC was > 100 µM; in the assay on EKVX NSCLC, 48.4 µM; in the assay on HCT-116 colon it was > 100 µM; in the assay on HCT-15 colon, > 100 µM; in the assay with K-562 leukemia, 9.95 µM; in the assay on MALME-3M melanoma it was 39.3 µM. Further, the TGI in the assay with MOLT-4 leukemia is 4.64 µM; in the assay with NCI-H226 lung it was 75.2 µM; in the assay on NCI-H522 lung, 34.2 µM; in the assay on OVCAR-3 ovarian, 30.3 µM; with SF-539 CNS, 88 µM; in the assay on SK-MEL-2 melanoma, 5.78 µM. The results for the TGI in the assay on SK-MEL-5 melanoma and in the assay with SW-620 colon were 27.1 µM and 69.3 µM, respectively.
